These results are taken from patent US10676468B2, “N-(3-heteroarylaryl)-4-arylarylcarboxamides and analogs as hedgehog pathway inhibitors and use thereof” (IMPACT Therapeutics, Inc., priority 2012, dated 2020).

In test [1] the test system is Hedgehog Signaling Pathway. The test is described as follows: SAG-induced differentiation of C3H10T1/2 cells into osteoblastic cells, intracellular alkaline phosphatase activity. The format is cell-based, mouse. Particulars: Mus musculus, C3H 10T1/2, 120 h, 1 μM SAG, 5 days, alkaline phosphatase activity (OD405), read-out: IC50 values of compounds that inhibit Hh pathway. From the text:
The Application of SAG to Induce Pluripotent Mesenchymal Mouse Embryonic Cell C3H/10T1/2 to Differentiate into Osteoblastic Cells for the Determination of the Inhibitory Activity of N-(3-(1H-benzo[d]imidazol-2-yl)-4-chlorophenyl)-2-methyl-4-((2S,6R)-2,6-dimethylmorpholino)benzamide and Analogs on Hedgehog Signaling Pathway
The intracellular alkaline phosphatase activity is a reliable indication of the differentiation process. Therefore this enzymatic activity can be used to monitor the activity of hedgehog pathway inhibitors.
The C3H10T1/2 cells were grown in DMEM medium supplemented with 10% fetal bovine serum (FBS, Hyclone) at 37° C. with 5% CO2. 10000 cells were sown to each well of a 96-well microplate a day before the experiment and grown overnight. At the day of experiment, the inducing medium and inhibitor solutions were prepared as follows: the reference compound and testing compounds were serially diluted 1 to 3 and 1 to 10 in DMSO to seven concentrations with the eighth concentration being DMSO. A 10-fold dilution was prepared by mixing 10 μL of the DMSO dilution with 90 μL of fresh growing medium. […] Pre-sown cells were taken out from incubator and the medium was removed. To each well, 180 μL inducing medium was added and followed immediately with 20 μL of testing or reference compound dilutions. The testing compound concentrations are between 10 μM and 1 nM. The cells were then return to CO2 incubator to grow additional 5 days at 37° C.
(§1) After incubating for 5 days, the cells were taken out and intracellular alkaline phosphatase activity was tested. The alkaline phosphatase activity was measured as follows:
1) Preparation of Substrate Solution:
(§2) Solution A: A 0.5 mM MgCl2 (Sigma Prod. No. M-0250) solution was prepared.
(§3) After the pH value was adjusted to 9.8 with 5 M HCl at 37° C., the total volume was adjusted to 100 mL.
(§4) After it is completely dissolved the total volume was adjusted to 10 mL with the final concentration being 1 mM.
Substrate reaction medium: To 10 mL of solution B, 250 μL of solution A and 200 μL of solution C were added, and mixed well.
2) the Measurement of Intracellular Alkaline Phosphatase Activity:
(§5) After taking out the cells from the incubator, the cell culture medium was removed and cells were washed twice with PBS. 20 μL of lysis solution (0.2% Triton solution) was added to each well. After being shaken for 30 min at room temperature, each well of cells received 80 μL of substrate reaction medium. The microplate was placed immediately into a VariSkan Flashplate reader and absorbance at OD405 was read as background reading. The plate was replaced back to cell culture incubator at 37° C. for additional 30 min and the absorbance was read again using VariSkan Flash plate reader at OD405.
The data were analyzed by subtracting the background reading from the reading at 30 min, and the obtained numbers were plotted and analyzed with Prism 5 software (GraphPad). The phosphatase activity (calculated OD405) was plotted against the log concentration of testing compound, and the obtained plot was fitted with non-linear curve fitting equation to calculate IC50 values. The curve fitting equation is Y=Bottom+(Top−Bottom)/(1+10^((X−Log IC50))). X is the logarithm of concentration. Y is the measure of alkaline phosphatase activity (OD405).
(§6) The calculated IC50 value is a measurement of the inhibitory activity of compound to Hh pathway.

The subject of test [2] is Hedgehog Signaling Pathway. Briefly: SHH-induced differentiation of C3H10T1/2 cells into osteoblastic cells, intracellular alkaline phosphatase activity. It is filed as cell-based, mouse. Particulars: Mus musculus, C3H 10T1/2, 120 h, 10 nM SHH-N, 5 days, alkaline phosphatase activity (OD405), read-out: IC50 values of compounds that inhibit Hh pathway. The method, then: The Application of SHH to Induce Pluripotent Mesenchymal Mouse Embryonic Cell C3H10T1/2 to Differentiate into Osteoblastic Cells for the Determination of the Inhibitory Activity of N-(3-(1H-benzo[d]imidazol-2-yl)-4-chlorophenyl)-2-methyl-4-((2S,6R)-2,6-dimethylmorpholino)benzamide and Analogs on Hedgehog Signaling Pathway
The C3H10T1/2 cells were grown in DMEM medium supplemented with 10% fetal bovine serum (FBS, Hyclone) at 37° C. with 5% CO2. 10000 cells were sown to each well of a 96-well microplate a day before the experiment and grown overnight. […] The reference compound and testing compounds were serially diluted 1 to 3 and 1 to 10 in DMSO to seven concentrations with the eighth concentration being DMSO. A 10-fold dilution was prepared by mixing 10 μL of the DMSO dilutions with 90 μL of fresh growing medium. Pre-sown cells were taken out from incubator and the medium was removed. To each well, 180 μL of inducing medium containing 10 nM of SHH-N was added and followed immediately with 20 μL of 10× testing or reference compound dilutions. The testing compound concentrations are between 10 μM and 10 nM. The cells were then returned to CO2 incubator to grow additional 5 days at 37° C.
as §1
3) Preparation of Substrate Solution:
as §2, §3, §4
Substrate reaction medium: to 10 mL of solution B, 250 μL of solution A and 200 μL of solution C were added, and mixed well.
4) The Measurement of Intracellular Alkaline Phosphatase Activity:
as §5
The data were analyzed by subtracting the background reading from the reading at 30 min, and the obtained numbers were plotted and analyzed with Prism 5 software (GraphPad). The phosphatase activity (calculated OD405) was plotted against the log concentration of testing compound, and the obtained plot was fitted with non-linear curve fitting equation to calculate IC50 values. The curve fitting equation is Y=Bottom+(Top−Bottom)/(1+10^(X−Log IC50)). X is the logarithm of concentration. Y is the measure of alkaline phosphatase activity (OD405).
as §6

`Cc1cc(-c2ccccc2)ccc1C(=O)Nc1ccc(Cl)c(-c2nc3ccccc3[nH]2)c1` [Example 2, N-(3-(1H-benzo[d]imidazol-2-yl)-4-chlorophenyl)-3-methylbiphenyl-4-carboxamide]: the IC50 in test [1] stood at 74 nM; in test [2] it was 14 nM.
Taken in the same sequence, the figures for `COc1ccc(-c2ccc(C(=O)Nc3ccc(Cl)c(-c4nc5ccccc5[nH]4)c3)c(C)c2)cc1` [Example 3, N-(3-(1H-benzo[d]imidazol-2-yl)-4-chlorophenyl)-3-methyl-4′-methoxybiphenyl-4-carboxamide] were 111 nM and 39 nM.
For `Cc1cc(-c2ccc(F)cc2)ccc1C(=O)Nc1ccc(Cl)c(-c2nc3ccccc3[nH]2)c1` [Example 4, N-(3-(1H-benzo[d]imidazol-2-yl)-4-chlorophenyl)-3-methyl-4′-fluorobiphenyl-4-carboxamide], in that order: 86 nM and 7.8 nM.
For `Cc1cc(-c2ccc(S(C)(=O)=O)cc2)ccc1C(=O)Nc1ccc(Cl)c(-c2nc3ccccc3[nH]2)c1` [Example 5, N-(3-(1H-benzo[d]imidazol-2-yl)-4-chlorophenyl)-3-methyl-4′-(methylsulfonyl)biphenyl-4-carboxamide], in that order: 26 nM and 5.9 nM.
Turning to `CC(=O)c1ccc(-c2ccc(C(=O)Nc3ccc(Cl)c(-c4nc5ccccc5[nH]4)c3)c(C)c2)cc1` [Example 9, N-(3-(1H-benzo[d]imidazol-2-yl)-4-chlorophenyl)-3-methyl-4′-acetylbiphenyl-4-carboxamide], the IC50 in test [1] came to 156 nM; in test [2], 43 nM.
For the compound `Cc1cc(-c2cccc(F)c2)ccc1C(=O)Nc1ccc(Cl)c(-c2nc3ccccc3[nH]2)c1` [Example 10, N-(3-(1H-benzo[d]imidazol-2-yl)-4-chlorophenyl)-3-methyl-3′-fluorobiphenyl-4-carboxamide], the IC50 was found to be 74 nM in test [1] and 6.3 nM in test [2].
In the case of `Cc1cc(-c2cccc(C#N)c2)ccc1C(=O)Nc1ccc(Cl)c(-c2nc3ccccc3[nH]2)c1` [Example 11, N-(3-(1H-benzo[d]imidazol-2-yl)-4-chlorophenyl)-3-methyl-3′-cyanobiphenyl-4-carboxamide], the values for the half-inhibitory concentration (IC50) in test [1] and in test [2] were 31 nM and 1.7 nM, respectively.
For `O=C(Nc1ccc(Cl)c(-c2nc3ccccc3[nH]2)c1)c1ccc(-c2ccc(F)cc2)cc1` [Example 12, N-(3-(1H-benzo[d]imidazol-2-yl)-4-chlorophenyl)-4′-fluorobiphenyl-4-carboxamide], in that order: 153 nM and 18 nM.
Taken in the same sequence, the figures for `O=C(Nc1ccc(Cl)c(-c2nc3ccccc3[nH]2)c1)c1ccc(-c2cccc(F)c2)cc1` [Example 13, N-(3-(1H-benzo[d]imidazol-2-yl)-4-chlorophenyl)-3′-fluorobiphenyl-4-carboxamide] were 86 nM and 14.6 nM.
Taken in the same sequence, the figures for `COc1cc(-c2ccc(C(F)(F)F)cc2)ccc1C(=O)Nc1ccc(Cl)c(-c2nc3ccccc3[nH]2)c1` [Example 15, N-(3-(1H-benzo[d]imidazol-2-yl)-4-chlorophenyl)-3-methoxy-4′-(trifluoromethyl)biphenyl-4-carboxamide] were more than 10000 nM and 40 nM.
In the case of `O=C(Nc1ccc(Cl)c(-c2nc3ccccc3[nH]2)c1)c1ccc(-c2ccc(C(F)(F)F)cc2)cc1O` [Example 16, N-(3-(1H-benzo[d]imidazol-2-yl)-4-chlorophenyl)-3-hydroxy-4′-(trifluoromethyl)biphenyl-4-carboxamide], the IC50 in test [1] and in test [2] was more than 10000 nM in each case.
On to `O=C(Nc1ccc(Cl)c(-c2nc3ccccc3[nH]2)c1)c1ccc(-c2ccc(C(F)(F)F)cc2)cc1F` [Example 17, N-(3-(1H-benzo[d]imidazol-2-yl)-4-chlorophenyl)-3-fluoro-4′-(trifluoromethyl)biphenyl-4-carboxamide], for which the results for the IC50 in test [1] and in test [2] were 81 nM and 15 nM, respectively.
Taken in the same sequence, the figures for `O=C(Nc1ccc(Cl)c(-c2nc3ccccc3[nH]2)c1)c1ccc(-c2ccc(C(F)(F)F)cc2)cc1[N+](=O)[O-]` [Example 19, N-(3-(1H-benzo[d]imidazol-2-yl)-4-chlorophenyl)-3-nitro-4′-(trifluoromethyl)biphenyl-4-carboxamide] were 161 nM and 23 nM.
Take `Cc1cc(-c2ccc(C(F)(F)F)cc2)cc(C)c1C(=O)Nc1ccc(Cl)c(-c2nc3ccccc3[nH]2)c1` [Example 20, N-(3-(1H-benzo[d]imidazol-2-yl)-4-chlorophenyl)-3,5-dimethyl-4′-(trifluoromethyl)biphenyl-4-carboxamide]: the values for the IC50 in test [1] and in test [2] were more than 10000 nM and 59 nM, respectively.
For `O=C(Nc1ccc(Cl)c(-c2nc3ccccc3[nH]2)c1)c1ccc(-c2ccccc2)cc1` [Example 23, N-(3-(1H-benzo[d]imidazol-2-yl)-4-chlorophenyl) biphenyl-4-carboxamide], in that order: 163 nM and 24 nM.
For `Cc1cc(-c2ccc(N)cc2)ccc1C(=O)Nc1ccc(Cl)c(-c2nc3ccccc3[nH]2)c1` [Example 24, N-(3-(1H-benzo[d]imidazol-2-yl)-4-chlorophenyl)-3-methyl-4′-aminobiphenyl-4-carboxamide], in that order: 255 nM and 62 nM.
Taken in the same sequence, the figures for `O=c1[nH]c2cc(-c3ccc(C(F)(F)F)cc3)ccc2c(=O)n1-c1ccc(Cl)c(-c2nc3ccccc3[nH]2)c1` [Example 26, 3-(3-(1H-benzo[d]imidazol-2-yl)-4-chlorophenyl)-7-(4-(trifluoromethyl)phenyl)quinazoline-2,4(1H,3H)-dione] were more than 10000 nM and more than 10000 nM.
As for `O=c1c2ccc(-c3ccc(C(F)(F)F)cc3)cc2ncn1-c1ccc(Cl)c(-c2nc3ccccc3[nH]2)c1` [Example 27, 3-(3-(1H-benzo[d]imidazol-2-yl)-4-chlorophenyl)-7-(4-(trifluoromethyl)phenyl)quinazolin-4(3H)-one], the IC50 in test [1] came to 151 nM; in test [2], 57 nM.
Taken in the same sequence, the figures for `O=C1c2ccc(-c3ccc(C(F)(F)F)cc3)cc2OCN1c1ccc(Cl)c(-c2nc3ccccc3[nH]2)c1` [Example 28, 3-(3-(1H-benzo[d]imidazol-2-yl)-4-chlorophenyl)-7-(4-(trifluoromethyl)phenyl)-2H-benzo[e][1,3]oxazin-4(3H)-one] were 228 nM and 59 nM.
